The subject of series [1] is panel of tumor cell lines. The note with it: cited from earlier work.
Another series relates to RSV. Nature of the series: RSV antiviral assay (Renilla luciferase reporter virus rA2-Rluc in A549 cells). In kind it is cell-based, respiratory syncytial virus. Particulars: for EC50 / IC50: human respiratory syncytial virus; for EC50: A549, read-out: EC50 against RSV (Table S12); for Selectivity Index: Selectivity index = CC50/IC50. Here is the method:
A549 (CCL-185, ATCC) cells were seeded at 1.6 × 10^4 cells in 100 μL of 5% FBS/1X penicillin–streptomycin/F12 medium per well in 96-well µClear® black plates with a clear bottom (Greiner 655090). The cells were infected with 400 PFU/well of a recombinant RSV encoding Renilla luciferase as an additional transcription unit (rA2-Rluc) in a total volume of 50 µL/well and allowed to adsorb for 1 h. Purified compounds were serially diluted two-fold in triplicate and 50 µL/well of the diluted extracts were added to the infected cells. After further incubation at 37 °C and 5% CO2 for 24 h, the supernatants were removed and cells were lysed using Renilla lysis buffer (Promega). Luciferase activity was measured with the Renilla Luciferase reagent (Promega) and BioTek Synergy Mx microplate luminometer using Gen5 version 2.00.18 software. The RSV antiviral effect for the test samples was determined by normalizing to the DMSO-treated control samples and multiplying by 100 to obtain the percent of control. Statistical analysis was performed using GraphPad Prism software version 9.4.1.
(In general: A reporter such as luciferase makes a cellular process visible.)

Series [2] can be described thus: Cytotoxicity assay (MTT) in uninfected A549 cells. In kind it is cell-based. Particulars: human, means ± SEM of triplicate samples. As for the experimental part:
To test for cell viability, duplicate 96-well plates of uninfected A549 cells were set up in parallel with the RSV antiviral assay. Extracts were diluted and used to treat cells as described above for the RSV antiviral assay. The negative control for cytotoxicity was 2% DMSO while the positive was 2 μM (final concentration) of PDKI inhibitor. After the 24 h incubation period, the cells were processed for an MTT Proliferation Assay (Provost and […] Research) according to the manufacturer's protocol. Absorbance at 570 nm was measured by a microplate luminometer and standardized to control as above. Two percent DMSO and 2 μM PDK1 inhibitor (CalBioChem) were used as negative and positive controls for cell death, respectively. Statistical analysis was performed using GraphPad Prism software version 9.4.1.

For another series, the system named is ESKAPE pathogens. The series is described as follows: Antibacterial screen. It counts as cell-based.
A further series has as its system Candida strains. Nature of the series: Antifungal screen. The note with it: several Candida strains. It counts as cell-based.
Series [3] can be described thus: Stability in solution (NMR / reversed-phase HPLC observation). In kind it is physicochemical. Particulars: CDCl3, NMR solvent. Here is the method: While NMR data were collected on purified suberitenone I (6), the signals decreased in intensity while those of a new species grew in intensity. […] Thus, suberitenone J (7) is the oxaspiro-ring-opened isomer, existing in equilibrium with 6. When the two were separated by reversed-phase HPLC, both reverted to an equilibrium mixture of ~3:1 6:7 over 24 h.

In a further series the test system is HIV gene expression. Set-up: method as in PMID 27768313. Particulars: cited from earlier work.
A further series relates to MRSA. Set-up: method as in doi:10.1021/jo00128a034, PMID 15104501, doi:10.1016/j.tetlet.2004.04.091, doi:10.1016/j.tetlet.2018.07.055. Particulars: cited from earlier work.
The mark [4] stands for this setting: A549, 24 h, read-out: IC50 (RSV antiviral).
Setting [5] is: A549, read-out: IC50 (RSV antiviral, text).

Like-named read-outs stand apart in the source and are kept apart here.

19-episuberitenone B: in series [1], the “cytotoxicity against a panel of tumor cell lines” value was “weak cytotoxicity”.
Regarding `CC(=O)OC1CC2(C)C=C3C4CC(=O)C(C)(CC4O)C3CC2C2(C)CCCC(C)(C)C12` (stereo not drawn) [Compound 1, Neosuberitenone A], the viral inhibitory effects entry in the series on RSV (at 25 µg/mL) is given as “did not show any viral inhibitory effects”. In addition, the EC50 with RSV is more than 50 µM.
Turning to `CC(=O)OC1CC2(C)C(CCC3(C4CC(=O)C(C)=CC4O)OC23)C2(C)CCCC(C)(C)C12` (stereo not drawn) [Compound 2, Suberitenone E], in the series on RSV, the “Selectivity Index” value amounted to 4.3 and the EC50 is 20.5 µM. Moreover, the IC50 in the series on RSV (setting [4]) worked out at 20.5 ± 0.7 µM. This compound also registered a 50% cytotoxic concentration (CC50) at 24 h in series [2] of 87.3 ± 38.1 µM.
In the case of `CC(=O)OC1CC2(C)C(O)C(C3CC(=O)C(C)=CC3O)=CCC2C2(C)CCCC(C)(C)C12` (stereo not drawn) [Compound 3, Suberitenone F], in the series with RSV, the “activity against RSV (in words)” value is on record as “active”, the “Selectivity Index” value is 3.7 and the EC50 was found to be 9.8 µM. Further, the IC50 in the series with RSV (setting [4]) is 9.8 ± 1.4 µM. Also, in the series on ESKAPE pathogens, the antibacterial activity result is “inactive”. In series [2], this compound came in with a CC50 at 24 h of 36 ± 5.3 µM. For the same compound, in the series on Candida strains, the antifungal activity entry is “inactive”.
For `CC(=O)O[C@@H]1C[C@@]2(C)C(=O)C([C@H]3CC(=O)C(C)=C[C@H]3O)=CCC2[C@@]2(C)CCCC(C)(C)C12` (stereo partly drawn) [Compound 4, Suberitenone G], in the series with RSV, the “Selectivity Index” value came to 3.7 and the EC50 was found to be 11 µM. In the series on RSV (setting [4]), the IC50 was 11 ± 1.3 µM. In addition, in series [2], the half-maximal cytotoxic concentration (CC50) at 24 h is 40.7 ± 8.3 µM. Besides, the “stability in CDCl3” value in series [3] was “decomposition was observed”.
Turning to `COC1C(C)C(=O)CC(C2(O)CCC3C(C)(CC(OC(C)=O)C4C(C)(C)CCCC43C)C2)C1O` (stereo not drawn) [Compound 5, Suberitenone H], in the series with RSV, the “Selectivity Index” value amounted to 4.7 and the EC50 came out at 10.9 µM. Further, the IC50 with RSV (setting [4]) worked out at 10.9 ± 1.8 µM. The compound also came in with a CC50 at 24 h in series [2] of 51.1 ± 17.5 µM.
`CC(=O)OC1CC2(C)C=C(C3CC(=O)C(C)=CC3O)CCC2C2(C)CCCC(C)(C)C12` (stereo not drawn) [Compound 10, suberitenone A]: in the series on RSV, the “activity against RSV (in words)” value was “active”, the “Selectivity Index” value amounted to 4.3 and the EC50 came to 7.9 µM. The IC50 in the series with RSV (setting [4]) amounted to 7.8 ± 0.2 µM. In addition, the half-maximal inhibitory concentration (IC50) in the series with RSV (setting [5]) came out at 7.9 µM. In addition, the antibacterial activity entry in the series with ESKAPE pathogens is “inactive”. Besides, the CC50 at 24 h in series [2] came out at 33.3 ± 1.3 µM. In the series with Candida strains, the antifungal activity result was “inactive”.
Take `CC(=O)OC1CC2(C)CC(O)(C3CC(=O)C(C)=CC3O)CCC2C2(C)CCCC(C)(C)C12` (stereo not drawn) [Compound 11, suberitenone B]: in the series on RSV, the “activity against RSV (in words)” value is listed as “active”, the “Selectivity Index” value worked out at 21.1 and the EC50 turned out to be 3.5 µM. Further, the IC50 in the series with RSV (setting [4]) worked out at 3.2 ± 0.4 µM. In the series with RSV (setting [5]), the IC50 was 3.5 µM. Moreover, the antibacterial activity result with ESKAPE pathogens is “inactive”. This compound also showed a CC50 at 24 h in series [2] of 67.6 ± 16.3 µM. Moreover, the antifungal activity result with Candida strains is “inactive”.
On to anvilone A, for which the HIV gene expression result with HIV gene expression is recorded as “turned on HIV gene expression”.
With isosuberitenone B, in series [1], the “cytotoxicity against a panel of tumor cell lines” value is “weak cytotoxicity”.
With oxaspirosuberitenone, in the series on MRSA, the “antibacterial activity against MRSA” value was “mild antibacterial activity”.

In general, EC50 refers to the midpoint of the concentration-response curve. What is called IC50 is the point on the concentration scale where inhibition reaches its midpoint. The term CC50 denotes the concentration at which the toxic effect on the cells reaches its halfway point. High values mean better tolerance by the cells, low ones harm at low concentration.

The values above are taken from publication PMC9964336, “Neosuberitenone, a New Sesterterpenoid Carbon Skeleton; New Suberitenones; and Bioactivity against Respiratory Syncytial Virus, from the Antarctic Sponge Suberites sp” (Marine Drugs, 2023).
